Measurements published in ChEMBL document CHEMBL1141239, “New series of potent delta-opioid antagonists containing the H-Dmt-Tic-NH-hexyl-NH-R motif” (Bioorg Med Chem Lett, 2005).
pIC50, pKi: −log10 of the molar value. Square brackets hold non-standard residues; d marks the D form. Peptide text beside a SMILES is read from it. Dmt = Cc1cc(O)cc(C)c1C[C@H](N)C(=O)O; Tic = O=C(O)[C@@H]1Cc2ccccc2CN1

Key:
[1] = target: Opioid receptors; mu & delta (Rattus norvegicus) (UniProt P33533+P33535); assay: Selectivity ratio of rat delta opioid receptor over rat mu opioid receptor; assay type: protein assay
[2] = target: T1, Delta-type opioid receptor (Mus musculus, UniProt P32300); assay: Displacement of deltorphin-II from delta opioid receptor in mouse vas deferens; assay type: functional; settings: read-out: pA2 (converted)
[3] = target: T1, Delta-type opioid receptor; assay: Agonistic activity at delta opioid receptor in mouse vas deferens; assay type: functional, tissue-based
Mu-type opioid receptor [4] = target: Mu-type opioid receptor (Cavia porcellus, UniProt P97266); assay: Agonistic activity against mu opioid receptor in guinea-pig ileum; assay type: functional, tissue-based
Mu-type opioid receptor [5] = target: Mu-type opioid receptor (Rattus norvegicus, UniProt P33535); assay: Displacement of [3H]DAMGO from mu opioid receptor in rat brain membrane; assay type: cell membranes
[6] = target: Delta-type opioid receptor (Rattus norvegicus, UniProt P33533); assay: Displacement of [3H]deltorphin II from delta opioid receptor in rat brain membrane; assay type: cell membranes
Delta-type opioid receptor (Rattus norvegicus, UniProt P33533), sequence (P33533 whole entry): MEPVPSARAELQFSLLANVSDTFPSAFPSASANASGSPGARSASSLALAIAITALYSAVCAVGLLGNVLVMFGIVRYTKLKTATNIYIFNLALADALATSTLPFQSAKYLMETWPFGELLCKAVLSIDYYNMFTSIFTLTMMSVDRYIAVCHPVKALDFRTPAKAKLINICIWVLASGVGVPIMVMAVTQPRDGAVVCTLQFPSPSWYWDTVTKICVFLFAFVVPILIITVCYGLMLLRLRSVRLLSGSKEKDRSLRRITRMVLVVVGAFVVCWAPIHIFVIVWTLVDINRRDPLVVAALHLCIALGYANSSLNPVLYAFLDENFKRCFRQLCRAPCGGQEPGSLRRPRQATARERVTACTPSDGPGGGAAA

Opioid receptors; mu & delta (Rattus norvegicus), sequence (P33533 whole entry, looked up): as the sequence (P33533 whole entry) above
Opioid receptors; mu & delta (Rattus norvegicus), sequence (P33535 whole entry, looked up): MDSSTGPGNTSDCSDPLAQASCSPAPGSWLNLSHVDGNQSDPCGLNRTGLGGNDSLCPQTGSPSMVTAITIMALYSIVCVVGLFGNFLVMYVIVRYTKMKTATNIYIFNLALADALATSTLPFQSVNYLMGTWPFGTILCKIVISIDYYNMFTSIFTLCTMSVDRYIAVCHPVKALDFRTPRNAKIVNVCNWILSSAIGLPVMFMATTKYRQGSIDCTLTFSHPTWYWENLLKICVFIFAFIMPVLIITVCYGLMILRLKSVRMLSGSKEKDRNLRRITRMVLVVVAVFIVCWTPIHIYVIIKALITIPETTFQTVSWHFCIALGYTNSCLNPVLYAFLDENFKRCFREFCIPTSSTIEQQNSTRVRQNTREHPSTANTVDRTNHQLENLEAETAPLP
Mu-type opioid receptor (Cavia porcellus, UniProt P97266), sequence (P97266 whole entry): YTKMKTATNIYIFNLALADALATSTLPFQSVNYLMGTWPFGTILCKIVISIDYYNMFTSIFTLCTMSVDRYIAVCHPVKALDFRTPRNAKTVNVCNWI
T1 sequence (P32300 whole entry): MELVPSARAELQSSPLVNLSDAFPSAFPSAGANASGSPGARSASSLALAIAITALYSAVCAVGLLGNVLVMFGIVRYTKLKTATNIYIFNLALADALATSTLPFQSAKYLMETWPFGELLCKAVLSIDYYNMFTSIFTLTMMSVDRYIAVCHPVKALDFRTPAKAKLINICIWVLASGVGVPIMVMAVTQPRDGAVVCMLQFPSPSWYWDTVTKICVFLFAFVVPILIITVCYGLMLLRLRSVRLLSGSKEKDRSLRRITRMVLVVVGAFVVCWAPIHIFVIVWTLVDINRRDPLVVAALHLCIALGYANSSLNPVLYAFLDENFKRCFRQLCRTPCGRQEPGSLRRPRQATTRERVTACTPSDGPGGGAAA
Mu-type opioid receptor (Rattus norvegicus, UniProt P33535), sequence (P33535 whole entry): as the sequence (P33535 whole entry, looked up) above

Compound | Ratio Ki [1] | Kb [2] | pIC50 [3] | pIC50 (Mu-type opioid receptor [4]) | pKi (Mu-type opioid receptor [5]) | pKi [6]
Cc1cc(O)cc(C)c1C[C@H](N)C(=O)NCCCCCCNC(=O)C1Cc2ccccc2CN1C(=O)[C@@H](N)Cc1c(C)cc(O)cc1C (some centres undefined) | 2 | 0.0631 nM | < 5.00 | 5.23 | 9.42 | 9.64
Cc1cc(O)cc(C)c1C[C@H](N)C(=O)N1Cc2ccccc2CC1C(=O)NCCCCCCNC(=O)[C@@H](N)Cc1ccccc1 (some centres undefined) | 2 | 0.0501 nM | < 5.00 | 5.26 | 8.72 | 9.05
Cc1cc(O)cc(C)c1C[C@H](N)C(=O)N1Cc2ccccc2C[C@H]1C(=O)O (H-[Dmt]-[Tic]-OH) |  | 3.16 nM |  |  |  | 
Cc1cc(O)cc(C)c1C[C@H](N)C(=O)N1Cc2ccccc2CC1C(=O)NCCCCCCNC(=O)C1Cc2ccccc2CN1 (some centres undefined) | 22 | 0.0398 nM | < 5.00 | 5.80 | 8.55 | 9.89
